Results from patent US8124637B2, “Anthra [1, 2-d]imidazole-6,11-dione derivatives, preparation method and application thereof” (National Defense Medical Center, priority 2010, dated 2012).

Tests used:
[1] = tested on: hTERT promoter (PhTERT) expression; assay: SEAP assay (PhTERT-SEAP reporter, H1299); assay type: cell-based, human; conditions: Homo sapiens, NCI-H1299, PhTERT-SEAP (H1299)
Method in brief: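 Stable H1299 clones carrying the hTERT promoter (−3338 to +1) driving SEAP were treated with varying drug amounts for 24 h at 37° C. Heat-treated media (65° C, 10 min) were assayed with 12 mM p-nitrophenyl phosphate in diethanolamine buffer; rate of A405 increase gave SEAP activity.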

[2] = tested on: ACHN; assay: NCI 60-cell drug screen, one dose; assay type: cell-based, human; conditions: Renal Cancer ACHN, 1.00E−5 Molar
Description: (§1) In brief, cellular protein levels were determined after 48 hours of drug exposure by sulforhodamine B colorimetry.
(§2) The screening system in United State National Cancer Institute (NCI) consists of 60 kinds of different human cancer cells, which can be used to assay the growth-inhibiting ability or cell toxicity of a compound against various cancer and tumor at a certain concentration. The NCI had selected 6 compounds synthesized above, and performed cell toxicity assay against 60 kinds of cancer cell strains (Table 2) (DTP Human Tumor Cell Line Screen), in which each compound was assayed at a certain concentration to observe its inhibition ability or cell toxicity against various kinds of cancer and tumor.

[3] = tested on: BT-549; assay: NCI 60-cell drug screen, one dose; assay type: cell-based, human; conditions: Breast Cancer BT-549, 1.00E−5 Molar
Description: as §1, §2

[4] = tested on: DU145; assay: NCI 60-cell drug screen, one dose; assay type: cell-based, human; conditions: Prostate Cancer DU145, 1.00E−5 Molar
Description: as §1, §2

[5] = tested on: EKVX; assay: NCI 60-cell drug screen, one dose; assay type: cell-based, human; conditions: Non-Small Cell Lung Cancer EKVX, 1.00E−5 Molar
Description: as §1, §2

[6] = tested on: HCT-116; assay: NCI 60-cell drug screen, one dose; assay type: cell-based, human; conditions: Colon Cancer HCT-116, 1.00E−5 Molar
Description: as §1, §2

[7] = tested on: HCT-15; assay: NCI 60-cell drug screen, one dose; assay type: cell-based, human; conditions: Colon Cancer HCT-15, 1.00E−5 Molar
Description: as §1, §2

[8] = tested on: HOP-62; assay: NCI 60-cell drug screen, one dose; assay type: cell-based, human; conditions: Non-Small Cell Lung Cancer HOP-62, 1.00E−5 Molar
Description: as §1, §2

[9] = tested on: HOP-92; assay: NCI 60-cell drug screen, one dose; assay type: cell-based, human; conditions: Non-Small Cell Lung Cancer HOP-92, 1.00E−5 Molar
Description: as §1, §2

[10] = tested on: HS 578-T; assay: NCI 60-cell drug screen, one dose; assay type: cell-based, human; conditions: Breast Cancer HS 578-T, 1.00E−5 Molar
Description: as §1, §2

[11] = tested on: KM12; assay: NCI 60-cell drug screen, one dose; assay type: cell-based, human; conditions: Colon Cancer KM12, 1.00E−5 Molar
Description: as §1, §2

[12] = tested on: LOX IMVI; assay: NCI 60-cell drug screen, one dose; assay type: cell-based, human; conditions: Melanoma LOX IMVI, 1.00E−5 Molar
Description: as §1, §2

[13] = tested on: MCF7; assay: NCI 60-cell drug screen, one dose; assay type: cell-based, human; conditions: Breast Cancer MCF7, 1.00E−5 Molar
Description: as §1, §2

[14] = tested on: MDA-MB-435; assay: NCI 60-cell drug screen, one dose; assay type: cell-based, human; conditions: Melanoma MDA-MB-435, 1.00E−5 Molar
Description: as §1, §2

[15] = tested on: MDA-MB-468; assay: NCI 60-cell drug screen, one dose; assay type: cell-based, human; conditions: Breast Cancer MDA-MB-468, 1.00E−5 Molar
Description: as §1, §2

[16] = tested on: NCI-H23; assay: NCI 60-cell drug screen, one dose; assay type: cell-based, human; conditions: Non-Small Cell Lung Cancer NCI-H23, 1.00E−5 Molar
Description: as §1, §2

[17] = tested on: NCI-H522; assay: NCI 60-cell drug screen, one dose; assay type: cell-based, human; conditions: Non-Small Cell Lung Cancer NCI-H522, 1.00E−5 Molar
Description: as §1, §2

[18] = tested on: OVCAR-4; assay: NCI 60-cell drug screen, one dose; assay type: cell-based, human; conditions: Ovarian Cancer OVCAR-4, 1.00E−5 Molar
Description: as §1, §2

[19] = tested on: OVCAR-5; assay: NCI 60-cell drug screen, one dose; assay type: cell-based, human; conditions: Ovarian Cancer OVCAR-5, 1.00E−5 Molar
Description: as §1, §2

[20] = tested on: SF-268; assay: NCI 60-cell drug screen, one dose; assay type: cell-based, human; conditions: CNS Cancer SF-268, 1.00E−5 Molar
Description: as §1, §2

[21] = tested on: SF-539; assay: NCI 60-cell drug screen, one dose; assay type: cell-based, human; conditions: CNS Cancer SF-539, 1.00E−5 Molar
Description: as §1, §2

[22] = tested on: SK-MEL-28; assay: NCI 60-cell drug screen, one dose; assay type: cell-based, human; conditions: Melanoma SK-MEL-28, 1.00E−5 Molar
Description: as §1, §2

[23] = tested on: SK-MEL-5; assay: NCI 60-cell drug screen, one dose; assay type: cell-based, human; conditions: Melanoma SK-MEL-5, 1.00E−5 Molar
Description: as §1, §2

[24] = tested on: SK-OV-3; assay: NCI 60-cell drug screen, one dose; assay type: cell-based, human; conditions: Ovarian Cancer SK-OV-3, 1.00E−5 Molar
Description: as §1, §2

[25] = tested on: SNB-19; assay: NCI 60-cell drug screen, one dose; assay type: cell-based, human; conditions: CNS Cancer SNB-19, 1.00E−5 Molar
Description: as §1, §2

[26] = tested on: SW-620; assay: NCI 60-cell drug screen, one dose; assay type: cell-based, human; conditions: Colon Cancer SW-620, 1.00E−5 Molar
Description: as §1, §2

[27] = tested on: 60 kinds of different human cancer cells; assay: NCI 60-cell drug screen, one dose, whole panel; assay type: cell-based; conditions: mean over the tested cell lines, 1.00E−5 Molar
Description: as §1, §2

For `O=C1c2ccccc2C(=O)c2c1ccc1nc(CN3CCN(c4ccccn4)CC3)[nH]c21` [CL28, 2-((4-(pyridin-2-yl)piperazin-1-yl)methyl)-1H-anthra[1,2-d]imidazole-6,11-dione], which activity at 1 µM ([1]; 1 μM, read-out: Relative SEAP activity (%)) is on record?
The activity at 1 µM was 91.2 ± 2.69%.

And the activity at 10 µM ([1]; 10 μM, read-out: Relative SEAP activity (%) (converted))?
The activity at 10 µM was 57.1%.

And the activity at 100 µM ([1]; 100 μM, read-out: Relative SEAP activity (%) (converted))?
Its activity at 100 µM is 1.12%.

What about the “Growth Percent” value [2] of the same compound?
Its value is 80.61%.

What about the “Growth Percent” value [3] of the same compound?
The value was 102.42%.

What about the “Growth Percent” value [4] of the same compound?
The value was 81.46%.

And the “Growth Percent” value [5]?
The value was 63.00%.

What about the “Growth Percent” value [6] of the same compound?
The value was 84.30%.

What about the “Growth Percent” value [7] of the same compound?
The value was 86.02%.

What about the “Growth Percent” value [8] of the same compound?
The value was 103.18%.

And the “Growth Percent” value [9]?
Its value is 93.87%.

What about the “Growth Percent” value [10] of the same compound?
Its value is 111.04%.

And the “Growth Percent” value [11]?
The value was 95.03%.

What about the “Growth Percent” value [12] of the same compound?
Its value is 82.25%.

What about the “Growth Percent” value [13] of the same compound?
Its value is 81.99%.

What about the “Growth Percent” value [14] of the same compound?
The value was 94.85%.

And the “Growth Percent” value [15]?
Its value is 53.92%.

And the “Growth Percent” value [16]?
The value was 81.65%.

What about the “Growth Percent” value [17] of the same compound?
Its value is 94.06%.

And the “Growth Percent” value [18]?
Its value is 64.57%.

And the “Growth Percent” value [19]?
Its value is 110.77%.

What about the “Growth Percent” value [20] of the same compound?
The value was 79.15%.

What about the “Growth Percent” value [21] of the same compound?
The value was 104.29%.

What about the “Growth Percent” value [22] of the same compound?
The value was 114.23%.

And the “Growth Percent” value [23]?
The value was 83.56%.

And the “Growth Percent” value [24]?
Its value is 93.16%.

What about the “Growth Percent” value [25] of the same compound?
The value was 81.00%.

And the “Growth Percent” value [26]?
The value was 85.97%.

And the “Growth Percent, Mean” value [27]?
Its value is 87.65%.
